One experiment addresses T1, JAK2-JH1 (Homo sapiens, UniProt O60674).
T1 construct: using a recombinant purified His or GST-tagged catalytic domain for each enzyme; made in house
The experiment is described as follows: HTRF-based selectivity assay, JAK2 catalytic domain. Conditions: kinase domain (JH1), 14.7 μM ATP. In kind it is biochemical. As to the method:
(§1) The ability of compounds to inhibit the activity of JAK1, JAK2, JAK3 and TYK2 is measured using a recombinant purified His or GST-tagged catalytic domain for each enzyme (JAK1, JAK2 and TYK2 are generated in-house; JAK3 was purchased from Carna biosciences, Cat #08-046) in an HTRF format biochemical assay. The reactions employs a commercial peptide substrate from Cisbio (Cat #62TK0PEC). The basic assay protocol is as follows: first, 2.5 μL of diluted compounds (4×) in DMSO are dispensed into a 384-well Optiplate. Next, 2.5 μL of enzyme (final concentrations for enzymes are: TYK2-700 ng/mL, JAK1-80.6 ng/ml, JAK2-2.1 ng/ml and JAK3-171.8 ng/mL) is added and incubated at RT for 5-20 min. Finally, 5 μl of mixture of 2×ATP [Final concentration 20 μM for TYK2, 21.43 μM for JAK1, 14.7 μM for JAK2 and 2.12 μM for JAK3]+2× Substrate [Final concentration 217 nM for TYK2, 454.7 nM for JAK1, 200 nM for JAK2 and 257.4 nM for JAK3] is added to 384 well Optiplate. Composition of Kinase assay buffer used in the assay is as follows: HEPES 50 mM, EGTA 1 mM, MgCl2 10 mM, DTT 2 mM, Tween-20 0.01% and water. Then the plates are shaken and then incubated at 26.5° C. for 60 min.

Experiment [1] deals with HEK-Blue IL-2 reporter cells. Nature of the experiment: HEK-Blue IL-2 reporter assay (SEAP) for determining selectivity. In kind it is cell-based. Conditions: HEK-Blue IL-2 cells, 4 ng/ml human recombinant IL-2, SEAP reporter. How it is done: (§2) HEK-Blue™ IL-2 and IFNγ reporter cells with a stably-integrated cytokine receptor and STAT5 or STAT1 express STAT-inducible secreted embryonic alkaline phosphatase (SEAP) reporter gene upon cytokine stimulation. These cells were plated in DMEM (Gibco) containing 10% heat-inactivated FBS (Gibco) and 100 U/mL PenStrep (Gibco) at 37° C. under 5% CO2 conditions for 20-22 hours. The cells were then pretreated with serially diluted test compounds for 60 min prior to stimulation with either 4 ng/ml human recombinant IL-2 (Miltenyl Biotech) or 50 ng/ml human recombinant IFNγ (InvivoGen) for 24 hours. SEAP induction was measured using the QUANTI-Blue™ Solution (InvivoGen) according to the manufacturer's instructions.

In experiment [2] the test system is HEK-Blue IFNγ reporter cells. Nature of the experiment: HEK-Blue IFNγ reporter assay (SEAP) for determining selectivity. In kind it is cell-based. Conditions: 50 ng/ml human recombinant IFNγ, read-out: IFN-γ IC50 (SEAP selectivity). How it is done: as §2
The next experiment deals with T2, JAK1-JH1 (Homo sapiens, UniProt P23458).
T2 construct: using a recombinant purified His or GST-tagged catalytic domain for each enzyme; made in house
T2 sequence (P23458 875-1153 limits assumed): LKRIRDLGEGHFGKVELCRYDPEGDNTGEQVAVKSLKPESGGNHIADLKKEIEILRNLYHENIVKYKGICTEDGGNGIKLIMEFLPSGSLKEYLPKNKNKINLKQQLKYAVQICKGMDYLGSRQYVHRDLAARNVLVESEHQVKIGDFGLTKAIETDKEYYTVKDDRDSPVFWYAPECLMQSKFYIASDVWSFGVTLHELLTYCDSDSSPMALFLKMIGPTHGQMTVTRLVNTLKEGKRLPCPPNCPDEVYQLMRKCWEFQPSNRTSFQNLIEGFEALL
Nature of the experiment: HTRF-based selectivity assay, JAK1 catalytic domain. It is filed as biochemical. Conditions: kinase domain (JH1), 21.43 μM ATP. As to the method: as §1

The test system of experiment [3] is TYK2 Pseudokinase (JH2). Nature of the experiment: HEK-Blue IFNα/β reporter assay (SEAP) for profiling TYK2 pseudokinase (JH2) inhibition. It is filed as cell-based. Conditions: HEK-Blue IFNα/β cells, 1 ng/mL human recombinant IFNα, read-out: IFNα IC50 (TYK2 inhibitory activity). How it is done: (§3) HEK-Blue™ IL-23 and IFNα/β cells with a stably-integrated cytokine receptor and STAT3 or STAT1 express STAT-inducible secreted embryonic alkaline phosphatase (SEAP) reporter gene upon cytokine stimulation. These cells are plated in DMEM (Gibco) containing 10% heat-inactivated FBS (Gibco) and 100 U/mL PenStrep (Gibco) at 37° C. under 5% CO2 conditions for 20-22 hours. The cells are then pretreated with serially diluted test compounds for 60 min prior to stimulation with either 10 ng/mL human recombinant IL-23 (Miltenyl Biotech) or 1 ng/mL human recombinant IFNα (InvivoGen) for 22-24 hours for IL-23 or 16-18 h for IFNα. SEAP induction is measured using the QUANTI Blue™ Solution (InvivoGen) according to the manufacturer's instructions.

Experiment [4] concerns TYK2 Pseudokinase (JH2). Nature of the experiment: HEK-Blue IL-23 reporter assay (SEAP) for profiling TYK2 pseudokinase (JH2) inhibition. It is filed as cell-based. Conditions: HEK-Blue IL-23 cells, 10 ng/mL human recombinant IL-23, SEAP reporter; read-out: IL23 IC50 (TYK2 inhibitory activity). How it is done: as §3
The next experiment deals with T3, JAK3-JH1 (Homo sapiens, UniProt P52333).
T3 construct: using a recombinant purified His or GST-tagged catalytic domain for each enzyme; purchased Carna biosciences 08-046
T3 sequence (P52333 822-1111 limits assumed): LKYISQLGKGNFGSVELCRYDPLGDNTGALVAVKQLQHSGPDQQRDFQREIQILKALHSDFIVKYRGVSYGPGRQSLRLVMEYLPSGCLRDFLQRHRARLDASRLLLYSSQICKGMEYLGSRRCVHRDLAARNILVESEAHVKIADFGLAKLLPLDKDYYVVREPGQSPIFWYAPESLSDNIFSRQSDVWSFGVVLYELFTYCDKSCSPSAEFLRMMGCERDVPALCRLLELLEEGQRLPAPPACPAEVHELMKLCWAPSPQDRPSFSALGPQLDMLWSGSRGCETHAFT
The experiment is described as follows: HTRF-based selectivity assay, JAK3 catalytic domain. It is filed as biochemical. Conditions: kinase domain (JH1), 2.12 μM ATP. How it is done:
as §1

In the next experiment the target is T4, TYK2-JH1 (Homo sapiens, UniProt P29597).
T4 construct: using a recombinant purified His or GST-tagged catalytic domain for each enzyme; made in house
T4 sequence (P29597 897-1176 limits assumed): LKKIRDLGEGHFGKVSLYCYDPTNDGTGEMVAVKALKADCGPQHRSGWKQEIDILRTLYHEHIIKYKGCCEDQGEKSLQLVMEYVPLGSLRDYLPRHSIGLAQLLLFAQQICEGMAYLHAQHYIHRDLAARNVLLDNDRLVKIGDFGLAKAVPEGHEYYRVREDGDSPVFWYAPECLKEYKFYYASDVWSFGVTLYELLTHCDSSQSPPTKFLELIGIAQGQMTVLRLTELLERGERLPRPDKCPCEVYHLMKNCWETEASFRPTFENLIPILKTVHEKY
Nature of the experiment: HTRF-based selectivity assay, TYK2 catalytic domain. In kind it is biochemical. Conditions: kinase domain (JH1), 20 μM ATP. How it is done:
as §1

T1 sequence (O60674 849-1124 limits assumed): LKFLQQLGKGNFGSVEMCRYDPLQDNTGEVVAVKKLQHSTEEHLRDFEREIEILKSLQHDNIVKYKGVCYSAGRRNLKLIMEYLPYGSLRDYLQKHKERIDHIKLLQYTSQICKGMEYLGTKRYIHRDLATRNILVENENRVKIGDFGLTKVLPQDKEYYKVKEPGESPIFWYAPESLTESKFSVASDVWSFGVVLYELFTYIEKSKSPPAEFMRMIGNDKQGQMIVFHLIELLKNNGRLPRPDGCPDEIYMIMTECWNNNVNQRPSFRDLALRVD

With `[2H]C([2H])([2H])NC(=O)c1nnc(NC(=O)C2CC2)cc1Nc1cccc2c1N(C)Cc1cccnc1-2` [Compound 1, 6-(cyclopropanecarboxamido)-N-(methyl-d3)-4-((6-methyl-5,6-dihydrobenzo[h][1,6]naphthyridin-7-yl)amino)pyridazine-3-carboxamide], the IC50 on JAK2-JH1 was more than 1000 nM; in experiment [1], more than 1000 nM; in experiment [2], more than 1000 nM; on JAK1-JH1 it was more than 1000 nM; with TYK2 Pseudokinase (JH2) [3] it was less than 30 nM; with TYK2 Pseudokinase (JH2) [4] it was less than 30 nM. Further, the IC50 at JAK3-JH1 and against TYK2-JH1 was more than 1000 nM each time.

For the compound `[2H]C([2H])([2H])NC(=O)c1nnc(Nc2ccc(F)cn2)cc1Nc1cccc2c1N(C)Cc1cccnc1-2` [Compound 2, 6-((5-fluoropyridin-2-yl)amino)-N-(methyl-d3)-4-((6-methyl-5,6-dihydrobenzo[h][1,6]naphthyridin-7-yl)amino)pyridazine-3-carboxamide], the IC50 is more than 1000 nM against JAK2-JH1; more than 1000 nM in experiment [1]; more than 1000 nM in experiment [2]; more than 1000 nM against JAK1-JH1; less than 30 nM in the experiment on TYK2 Pseudokinase (JH2) [3]; less than 30 nM in the experiment on TYK2 Pseudokinase (JH2) [4]. Besides, the IC50 on JAK3-JH1 and on TYK2-JH1 was more than 1000 nM in each case.

`[2H]C([2H])([2H])NC(=O)c1cnc(NC(=O)C2CC2)cc1Nc1cccc2c1N(C)Cc1cccnc1-2` [Compound 3, 6-(cyclopropanecarboxamido)-N-(methyl-d3)-4-((6-methyl-5,6-dihydrobenzo[h][1,6]naphthyridin-7-yl)amino)nicotinamide]: the IC50 was more than 1000 nM against JAK2-JH1; more than 1000 nM in experiment [1]; more than 1000 nM in experiment [2]; more than 1000 nM against JAK1-JH1; less than 30 nM with TYK2 Pseudokinase (JH2) [3]; less than 30 nM in the experiment with TYK2 Pseudokinase (JH2) [4]. Also, the IC50 on JAK3-JH1 and against TYK2-JH1 was more than 1000 nM throughout.

`[2H]C([2H])([2H])NC(=O)c1cnc(NC(=O)C2CC2)cc1Nc1nccc2c1N(C)Cc1nccnc1-2` [Compound 14, 6-(cyclopropanecarboxamido)-N-(methyl-d3)-4-((6-methyl-5,6-dihydropyrazino[2,3-c][1,7]naphthyridin-7-yl)amino)nicotinamide]: the figures for the concentration for half-maximal inhibition (IC50) (in experiment [1]; in the experiment with TYK2 Pseudokinase (JH2) [3]; with TYK2 Pseudokinase (JH2) [4]) were more than 1000 nM, less than 30 nM and less than 30 nM, respectively.

Consider `CNC(=O)c1cnc(NC(=O)C2CC2)cc1Nc1cccc2c1N(C)Cc1cccnc1-2` [Compound 15, 6-(cyclopropanecarboxamido)-N-methyl-4-((6-methyl-5,6-dihydrobenzo[h][1,6]naphthyridin-7-yl)amino)nicotinamide], for which the half-inhibitory concentration (IC50) is more than 1000 nM in experiment [1], 30 to 300 nM in experiment [2], less than 30 nM with TYK2 Pseudokinase (JH2) [3] and less than 30 nM with TYK2 Pseudokinase (JH2) [4].

On to `[2H]C([2H])([2H])NC(=O)c1cnc(NC(=O)C2CC2)cc1Nc1nccc2c1N(C)Cc1cccnc1-2` [Compound 19, 6-(cyclopropanecarboxamido)-N-(methyl-d3)-4-((6-methyl-5,6-dihydropyrido[3,4-h][1,6]naphthyridin-7-yl)amino)nicotinamide], for which the IC50 is more than 1000 nM in experiment [1], 300 to 1000 nM in experiment [2], less than 30 nM in the experiment on TYK2 Pseudokinase (JH2) [3] and less than 30 nM in the experiment on TYK2 Pseudokinase (JH2) [4].

In the case of `[2H]C([2H])([2H])NC(=O)c1cnc(NC(=O)C2CC2)cc1Nc1cccc2c1N(C)C([2H])([2H])c1cccnc1-2` [Compound 20, 6-(cyclopropanecarboxamido)-N-(methyl-d3)-4-((6-methyl-5,6-dihydrobenzo[h][1,6]naphthyridin-7-yl-5,5-d2)amino)nicotinamide], the half-maximal inhibitory concentration (IC50) in experiment [1] is more than 1000 nM; in experiment [2], 30 to 300 nM; with TYK2 Pseudokinase (JH2) [3], less than 30 nM; in the experiment with TYK2 Pseudokinase (JH2) [4] it was less than 30 nM.

Regarding `[2H]C([2H])([2H])NC(=O)c1nnc(NC(=O)C2CC2)cc1Nc1cccc2c1N(C)C([2H])([2H])c1cc(F)cnc1-2` [Compound 21, 6-(cyclopropanecarboxamido)-4-((3-fluoro-6-methyl-5,6-dihydrobenzo[h][1,6]naphthyridin-7-yl-5,5-d2)amino)-N-(methyl-d3)pyridazine-3-carboxamide], the IC50 is 300 to 1000 nM in experiment [1], 30 to 300 nM in experiment [2], 30 to 300 nM in the experiment on TYK2 Pseudokinase (JH2) [3] and less than 30 nM with TYK2 Pseudokinase (JH2) [4].

As for `[2H]C([2H])([2H])NC(=O)c1cnc(NC(=O)C2CC2)cc1Nc1cccc2c1N(C)C([2H])([2H])c1cc(F)cnc1-2` [Compound 22, 6-(cyclopropanecarboxamido)-4-((3-fluoro-6-methyl-5,6-dihydrobenzo[h][1,6]naphthyridin-7-yl-5,5-d2)amino)-N-(methyl-d3)nicotinamide], the IC50 with TYK2 Pseudokinase (JH2) [3] was 30 to 300 nM; in the experiment with TYK2 Pseudokinase (JH2) [4] it was less than 30 nM.

For `[2H]C([2H])([2H])NC(=O)c1nnc(NC(=O)C2CC2)cc1Nc1cccc2c1N(C)C([2H])([2H])c1ccc(C)nc1-2` [Compound 23, 6-(cyclopropanecarboxamido)-4-((2,6-dimethyl-5,6-dihydrobenzo[h][1,6]naphthyridin-7-yl-5,5-d2)amino)-N-(methyl-d3)pyridazine-3-carboxamide], the concentration for half-maximal inhibition (IC50) in experiment [1] was more than 1000 nM; in experiment [2] it was 30 to 300 nM; in the experiment with TYK2 Pseudokinase (JH2) [3], less than 30 nM; in the experiment with TYK2 Pseudokinase (JH2) [4], less than 30 nM.

Take `[2H]C([2H])([2H])NC(=O)c1cnc(NC(=O)C2CC2)cc1Nc1cccc2c1N(C)C([2H])([2H])c1ccc(C)nc1-2` [Compound 24, 6-(cyclopropanecarboxamido)-4-((2,6-dimethyl-5,6-dihydrobenzo[h][1,6]naphthyridin-7-yl-5,5-d2)amino)-N-(methyl-d3)nicotinamide]: the IC50 in experiment [1] is more than 1000 nM; in experiment [2], more than 1000 nM; with TYK2 Pseudokinase (JH2) [3], 30 to 300 nM; in the experiment with TYK2 Pseudokinase (JH2) [4], less than 30 nM.

Regarding `[2H]C([2H])([2H])NC(=O)c1cnc(NC(=O)C2CC2)cc1Nc1cccc2c1N(C)C([2H])([2H])c1ccc(C(F)(F)F)nc1-2` [Compound 25, 6-(cyclopropanecarboxamido)-N-(methyl-d3)-4-((6-methyl-2-(trifluoromethyl)-5,6-dihydrobenzo[h][1,6]naphthyridin-7-yl-5,5-d2)amino)nicotinamide], the values for the IC50 with TYK2 Pseudokinase (JH2) [3] and in the experiment with TYK2 Pseudokinase (JH2) [4] were 300 to 1000 nM and 30 to 300 nM, respectively.

On to `[2H]C([2H])([2H])NC(=O)c1nnc(NC(=O)C2CC2)cc1Nc1cccc2c1N(C)C([2H])([2H])c1ccc(C(F)(F)F)nc1-2` [Compound 26, 6-(cyclopropanecarboxamido)-N-(methyl-d3)-4-((6-methyl-2-(trifluoromethyl)-5,6-dihydrobenzo[h][1,6]naphthyridin-7-yl-5,5-d2)amino)pyridazine-3-carboxamide], for which the IC50 in experiment [1] is more than 1000 nM; in experiment [2], 30 to 300 nM; in the experiment on TYK2 Pseudokinase (JH2) [3] it was more than 1000 nM; in the experiment on TYK2 Pseudokinase (JH2) [4], 300 to 1000 nM.

(Values after patent US12600721B2, “TYK2 inhibitors and uses thereof” (Sudo Biosciences Limited, priority 2021, dated 2026).)
